According to ChEMBL document CHEMBL3351918 (Bioorg Med Chem, 2014):
pIC50: −log10 of the molar value. Active and inactive are the calls of the source. No cut-off for these calls is given here.

Assays:
[1] = biological target: Amyloid-beta precursor protein (Homo sapiens) (UniProt P05067); assay: Inhibition of Amyloid beta (1 to 40) (unknown origin) assessed as self-mediated fibril formation at 50 uM incubated for 48 hrs by transmission electron microscopy
[2] = biological target: Butyrylcholinesterase (Rattus norvegicus, UniProt Q9JKC1); assay: Inhibition of BChE in rat serum using butyrylthiocholine iodide substrate incubated for 15 mins by UV spectroscopy based Ellman's method; format: cell-free
[3] = biological target: T1, Acetylcholinesterase (Rattus norvegicus, UniProt P37136); assay: Inhibition of AChE in rat cortex homogenates using acetylthiocholine iodide substrate incubated for 15 mins by UV spectroscopy based Ellman's method
T1 sequence (P37136 whole entry): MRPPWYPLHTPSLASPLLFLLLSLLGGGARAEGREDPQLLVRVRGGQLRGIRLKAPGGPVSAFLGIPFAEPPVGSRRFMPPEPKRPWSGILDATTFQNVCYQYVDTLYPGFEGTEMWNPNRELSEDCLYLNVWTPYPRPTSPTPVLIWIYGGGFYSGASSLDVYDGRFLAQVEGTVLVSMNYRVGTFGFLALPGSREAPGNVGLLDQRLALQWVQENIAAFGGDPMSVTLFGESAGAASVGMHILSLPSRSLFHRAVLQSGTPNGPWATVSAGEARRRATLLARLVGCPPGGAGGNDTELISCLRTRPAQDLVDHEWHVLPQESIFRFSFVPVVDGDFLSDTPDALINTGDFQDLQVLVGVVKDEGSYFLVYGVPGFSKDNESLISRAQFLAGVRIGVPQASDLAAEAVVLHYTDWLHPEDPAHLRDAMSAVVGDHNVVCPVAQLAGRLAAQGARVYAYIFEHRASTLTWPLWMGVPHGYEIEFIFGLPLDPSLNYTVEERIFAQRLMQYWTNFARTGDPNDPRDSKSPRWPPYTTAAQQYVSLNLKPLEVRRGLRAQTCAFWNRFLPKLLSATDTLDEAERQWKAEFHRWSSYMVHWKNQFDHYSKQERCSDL

[4] = biological target: T1, Acetylcholinesterase; assay: Retention time in rat cortex homogenates at 1 mmol after 24 hrs by HPLC-MS method; format: ADME; conditions: tissue homogenate
[5] = biological target: T1, Acetylcholinesterase; assay: Prodrug activation in rat cortex homogenates assessed as AChE-mediated 2-methoxy-4-(piperidin-1-ylmethyl)phenol formation at 1 mmol after 24 hrs by HPLC-MS method; conditions: tissue homogenate
[6] = Antioxidant activity assessed as ABTS radical cation scavenging activity; format: physicochemical
[7] = biological target: Butyrylcholinesterase (Rattus norvegicus) (UniProt Q9JKC1); assay: Potency index, ratio of IC50 for rivastigmine to IC50 for test compound against BChE in rat serum using butyrylthiocholine iodide substrate incubated for 15 mins by UV spectroscopy based Ellman's method; format: cell-free
[8] = Metal chelating activity assessed as inhibition of copper-mediated Amyloid beta (1 to 40) aggregation at 50 uM after 48 hrs by transmission electron microscopy; format: physicochemical
[9] = biological target: T1, Acetylcholinesterase; assay: Prodrug activation in rat cortex homogenates treated with 1 mmol 2-Methoxy-4-(piperidin-1-ylmethyl)phenyl dimethylcarbamate assessed as AChE-mediated compound formation after 24 hrs by HPLC-MS method; format: ADME; conditions: tissue homogenate

Butyrylcholinesterase, sequence (Q9JKC1 whole entry): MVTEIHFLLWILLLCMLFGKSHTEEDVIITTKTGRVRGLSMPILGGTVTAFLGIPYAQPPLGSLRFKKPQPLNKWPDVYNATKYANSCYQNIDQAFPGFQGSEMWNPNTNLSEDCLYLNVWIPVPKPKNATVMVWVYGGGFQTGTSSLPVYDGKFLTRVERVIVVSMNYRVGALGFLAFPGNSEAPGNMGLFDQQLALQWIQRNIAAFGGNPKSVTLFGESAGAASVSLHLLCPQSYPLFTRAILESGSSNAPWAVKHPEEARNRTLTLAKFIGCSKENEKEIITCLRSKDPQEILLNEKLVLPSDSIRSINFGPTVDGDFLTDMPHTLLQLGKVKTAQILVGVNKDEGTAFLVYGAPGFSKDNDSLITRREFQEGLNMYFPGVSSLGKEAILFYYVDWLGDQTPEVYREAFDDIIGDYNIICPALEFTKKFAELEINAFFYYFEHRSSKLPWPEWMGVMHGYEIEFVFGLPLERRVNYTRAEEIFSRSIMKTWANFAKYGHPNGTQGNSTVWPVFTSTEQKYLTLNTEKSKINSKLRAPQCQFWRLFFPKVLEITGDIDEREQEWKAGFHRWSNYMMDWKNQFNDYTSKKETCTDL
Amyloid-beta precursor protein (Homo sapiens), sequence (P05067 whole entry): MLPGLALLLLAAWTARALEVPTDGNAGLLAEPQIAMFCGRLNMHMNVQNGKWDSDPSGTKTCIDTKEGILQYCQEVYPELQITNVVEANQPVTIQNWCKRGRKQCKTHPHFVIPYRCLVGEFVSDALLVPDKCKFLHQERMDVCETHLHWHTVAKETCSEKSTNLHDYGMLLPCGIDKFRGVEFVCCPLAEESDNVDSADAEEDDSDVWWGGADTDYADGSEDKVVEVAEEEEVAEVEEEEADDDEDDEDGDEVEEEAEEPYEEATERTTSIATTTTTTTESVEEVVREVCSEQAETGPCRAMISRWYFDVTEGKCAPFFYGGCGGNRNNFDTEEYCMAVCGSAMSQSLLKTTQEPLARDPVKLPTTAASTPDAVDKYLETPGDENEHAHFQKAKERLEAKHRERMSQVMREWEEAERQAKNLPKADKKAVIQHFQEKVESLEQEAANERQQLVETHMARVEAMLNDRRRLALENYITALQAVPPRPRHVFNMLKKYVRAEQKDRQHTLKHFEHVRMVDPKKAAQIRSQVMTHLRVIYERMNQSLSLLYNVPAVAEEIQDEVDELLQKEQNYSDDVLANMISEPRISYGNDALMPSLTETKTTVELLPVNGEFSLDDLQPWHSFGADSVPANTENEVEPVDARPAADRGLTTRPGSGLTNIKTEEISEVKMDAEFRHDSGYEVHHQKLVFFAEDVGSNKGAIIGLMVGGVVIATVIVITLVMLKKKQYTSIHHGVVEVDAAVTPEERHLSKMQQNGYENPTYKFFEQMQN
Butyrylcholinesterase (Rattus norvegicus), sequence (Q9JKC1 as listed by the source): as the sequence (Q9JKC1 whole entry) above

SMILES	pIC50 [2]	pIC50 [3]	further results
CCN(C)C(=O)Oc1cccc([C@H](C)N(C)C)c1	–	–	inhibition [1]: inactive
CCN(CC)Cc1ccc(OC)c(OC(=O)N(C)C)c1	7.10	5.83	–
COc1cc(C(C)N2CCOCC2)ccc1OC(=O)N(C)C (stereo not given)	6.51	5.30	–
COc1cc(CN2CCCC2)ccc1OC(=O)N(C)C	7.92	6.89	–
COc1ccc(CN2CCCC2)cc1OC(=O)N(C)C	7.54	5.54	–
COc1cc(CN2CCOCC2)ccc1OC(=O)N(C)C	6.37	5.77	–
COc1cc(/C=C/C(=O)CC(=O)/C=C/c2ccc(O)c(OC)c2)ccc1O	–	–	inhibition [1]: Active
CCN(CC)Cc1ccc(OC(=O)N(C)C)c(OC)c1	7.46	6.96	–
CCN(CC)C(C)c1ccc(OC(=O)N(C)C)c(OC)c1 (stereo not given)	7.20	6.62	–
COc1ccc(C(C)N2CCCCC2)cc1OC(=O)N(C)C (stereo not given)	7.47	5.85	–
COc1cc(CN2CCCCC2)ccc1OC(=O)N(C)C	7.62	7.01	Retention_time [4]: 6.84 min; inhibition [1]: Active; Drug metabolism [5]: metabolite_detected
COc1ccc(C(C)N2CCOCC2)cc1OC(=O)N(C)C (stereo not given)	6.57	4.63	–
COc1ccc2[nH]cc(CCNC(C)=O)c2c1 [MELATONIN]	–	–	pIC50 [6]: 5.72; inhibition (INH) [6]: Dose-dependent effect
COc1ccc(CN2CCOCC2)cc1OC(=O)N(C)C	6.92	4.68	–
COc1cc(C(C)N2CCCCC2)ccc1OC(=O)N(C)C (stereo not given)	8.10	6.96	inhibition [1]: Active; Ratio IC50 [7]: 40
COc1ccc(CN2CCCCC2)cc1OC(=O)N(C)C	8.00	6.18	inhibition [1]: Active; Ratio IC50 [7]: 40
COc1cccc(CN2CCCCC2)c1OC(=O)N(C)C	5.50	4.64	–
COc1ccc(C(C)N2CCCC2)cc1OC(=O)N(C)C (stereo not given)	7.09	5.72	–
CCN(CC)C(C)c1ccc(OC)c(OC(=O)N(C)C)c1 (stereo not given)	6.89	5.56	–
COc1cc(C(C)N2CCCC2)ccc1OC(=O)N(C)C (stereo not given)	7.74	6.72	–
COc1cc(CN2CCCCC2)ccc1O	–	–	Retention_time [4]: 5.5 min; inhibition (INH) [8]: Active; Drug metabolism [9]: metabolite_detected; pIC50 [6]: 5.54; inhibition (INH) [6]: Dose-dependent effect
